Holding throughout (assay): NCI tumour cell line growth inhibition, 48 h
In assay [1] the test system is 786-0.
The test system of assay [2] is ACHN.
The test system of assay [3] is BT-549.
Assay [4] relates to COLO 205.
The subject of assay [5] is HCT-15.
The test system of assay [6] is HOP-62.
The subject of assay [7] is LOX IMVI.
In assay [8] the test system is MCF7.
For assay [9], the system named is NCI-H226.
The test system of assay [10] is NCI/ADR-RES.
In assay [11] the test system is OVCAR-8.
In assay [12] the test system is RPMI-8226.
Assay [13] deals with SNB-19.
The subject of assay [14] is SR.
The test system of assay [15] is T47D.
For assay [16], the system named is U-251.
Assay [17] relates to UACC-257.
In assay [18] the test system is UACC-62.
The test system of assay [19] is UO-31.

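Exposure lasted 48 hours, with cells grown in 96-well plates and compounds tested at five concentrations. Abbreviation: GI50, concentration required for 50% inhibition of growth.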 Activity calls are given as the source filed them. Rule as the data show it: active = GI50 up to about 1.1 µM and inactive = higher.

As to `O=C(/C=C/c1ccccc1)Nc1ccccc1SCCCCl`, the GI50 in assay [1] is 13.4 µM (inactive); in assay [2] it was 20 µM (inactive); in [3], 8.11 µM (inactive); in assay [4], 15.6 µM (inactive); in assay [5], 13.4 µM; in assay [6], 15 µM (inactive). For the same compound, the GI50 in assay [7] is 8.81 µM (inactive); in assay [8], 4.4 µM (inactive); in [9] it was > 33.7 µM (inactive); in assay [10], 3.66 µM (inactive); in [11], 16.5 µM (inactive); in [12], 27.4 µM (inactive). In addition, the GI50 was 19.1 µM (inactive) in assay [13]; 9.38 µM (inactive) in assay [14]; 7.52 µM (inactive) in assay [15]; 8.93 µM (inactive) in assay [16]; 18.2 µM (inactive) in assay [17]; 6.9 µM (inactive) in assay [18]. Further, the GI50 in assay [19] is 7.48 µM (inactive).
Turning to `N=C(N)Nc1ccc(CC(N)NCC(=O)O)cc1` (configuration not stated), the GI50 is > 25 µM (inactive) in assay [1]; > 25 µM (inactive) in assay [2]; > 25 µM (inactive) in assay [3]; > 25 µM (inactive) in [4]; over 25 µM in [5]; > 25 µM (inactive) in assay [6]. For the same compound, the GI50 in [7], in [8], in assay [9], in [10], in [11] and in assay [12] was > 25 µM (inactive) throughout. Besides, the GI50 is 20 µM (inactive) in assay [14]; > 25 µM (inactive) in assay [15]; > 25 µM (inactive) in assay [16]; > 25 µM (inactive) in assay [17]; > 25 µM (inactive) in assay [18]; > 25 µM (inactive) in assay [19].
As for `CC(NC(=O)C(C)C(=O)Nc1ccc(C(F)(F)F)cc1)C(N)=O` (configuration not stated), the GI50 in [1] is > 100 µM (inactive); in [2], > 100 µM (inactive); in [3] it was > 100 µM (inactive); in assay [4], > 100 µM (inactive); in assay [5], over 100 µM; in [8] it was > 100 µM (inactive). For the same compound, the GI50 in assay [9] is > 100 µM (inactive); in assay [10], > 100 µM (inactive); in assay [11], > 100 µM (inactive); in assay [12], > 100 µM (inactive); in assay [13], 94 µM (inactive); in [14] it was > 10 µM (inactive). The GI50 in [15], in [16], in assay [17], in assay [18] and in [19] was > 100 µM (inactive) throughout.
In the case of `COc1ccc(/C=c2\s/c(=C3/SC(=S)N(c4ccccc4)C3=O)n(-c3ccccc3)c2=O)cc1`, the GI50 in assay [1] was 43.6 µM (inactive); in assay [2], 13.6 µM (inactive); in assay [3], 43.2 µM (inactive); in assay [4], > 100 µM (inactive); in assay [5], over 100 µM; in assay [6] it was 21.6 µM (inactive). In addition, the GI50 is > 100 µM (inactive) in assay [7]; 0.264 µM (active) in assay [8]; > 100 µM (inactive) in assay [10]; > 100 µM (inactive) in assay [11]; > 100 µM (inactive) in [12]; 35.4 µM (inactive) in assay [13]. In addition, the GI50 in [14] was 15.3 µM (inactive); in assay [15], > 100 µM (inactive); in assay [16], 19.6 µM (inactive); in assay [18] it was 61 µM (inactive); in assay [19] it was 73.1 µM (inactive).
Regarding `CNc1ncnc2c1ncn2C1C=CC(COS(N)(=O)=O)C1` (configuration not stated), the GI50 in assay [1] is > 100 µM (inactive); in [2] it was > 100 µM (inactive); in [3], > 100 µM (inactive); in [4], > 100 µM (inactive); in [5] it was over 100 µM; in assay [6], > 100 µM (inactive). For the same compound, the GI50 in assay [7], in [8], in assay [10], in assay [11], in assay [12] and in assay [13] was > 100 µM (inactive) each time. Besides, the GI50 in [14], in assay [15], in [16], in assay [17], in assay [18] and in assay [19] was > 100 µM (inactive) throughout.
With `CN(C)c1ccc(C=C2N=C(c3ccccc3)N(c3cc(C(=O)c4ccccc4)ccc3N3C(=O)/C(=C/c4ccc(N(C)C)cc4)N=C3c3ccccc3)C2=O)cc1`, the GI50 is 6.17 µM (inactive) in [1]; 6.31 µM (inactive) in [2]; 28.3 µM (inactive) in assay [3]; 3.74 µM (inactive) in [4]; 4.49 µM in [5]; 20.7 µM (inactive) in [6]. Besides, the GI50 in assay [7] was 5.98 µM (inactive); in [8] it was 3.33 µM (inactive); in assay [10] it was 4.06 µM (inactive); in assay [11], 11.5 µM (inactive); in assay [12], 3.01 µM (inactive); in [13], 7.94 µM (inactive). Further, the GI50 in [14] is 3.3 µM (inactive); in [15] it was 5.65 µM (inactive); in [16], 3.67 µM (inactive); in [17], 6.43 µM (inactive); in assay [18], 4.24 µM (inactive); in assay [19], 15.8 µM (inactive).
In the case of `Oc1nnnc2c1sc1ncccc12`, the GI50 in assay [1] was > 100 µM (inactive); in [2], > 100 µM (inactive); in assay [3] it was > 100 µM (inactive); in [4], > 100 µM (inactive); in assay [5] it was over 100 µM; in assay [6] it was > 100 µM (inactive). Further, the GI50 in assay [7], in [8], in assay [9], in assay [10], in assay [11] and in [13] was > 100 µM (inactive) each time. Further, the GI50 in assay [14] is 5.7 µM (inactive); in assay [15] it was > 100 µM (inactive); in assay [16], > 100 µM (inactive); in assay [17], > 100 µM (inactive); in assay [18], > 100 µM (inactive); in assay [19], 84.5 µM (inactive).
Regarding `Cc1ccc(CS(=O)(=O)C/N=C2\Sc3ccccc3N\C2=C/C(=O)c2ccc(Cl)cc2)cc1`, the GI50 was > 10 µM (inactive) in assay [1]; > 10 µM (inactive) in assay [2]; > 10 µM (inactive) in assay [3]; > 10 µM (inactive) in assay [4]; over 10 µM in assay [5]; 8.22 µM (inactive) in [6]. In addition, the GI50 in assay [7] is > 10 µM (inactive); in assay [8], 0.703 µM (active); in assay [10], > 10 µM (inactive); in assay [11] it was > 10 µM (inactive); in assay [12], > 10 µM (inactive); in assay [13] it was > 10 µM (inactive). The GI50 was > 10 µM (inactive) in assay [14]; 1.71 µM (inactive) in [15]; > 10 µM (inactive) in assay [16]; > 10 µM (inactive) in assay [17]; > 10 µM (inactive) in assay [18].
For the compound `Cc1c(Cc2ccccc2)c(Cc2ccccc2)c(C)[s+]1[O-]`, the GI50 in assay [1] was 22.9 µM (inactive); in assay [2], 32.7 µM (inactive); in assay [3] it was 33.2 µM (inactive); in assay [4], 20.5 µM (inactive); in assay [5] it was 31.3 µM; in assay [6], 50.4 µM (inactive). Also, the GI50 in [7] is 20.7 µM (inactive); in [8], 20.3 µM (inactive); in assay [10] it was 19.7 µM (inactive); in assay [11], 41.3 µM (inactive); in [12], 19.7 µM (inactive); in assay [13], 47.1 µM (inactive). Moreover, the GI50 in assay [14] was 19.8 µM (inactive); in assay [15], 12.9 µM (inactive); in [16] it was 25.6 µM (inactive); in assay [17], 19.7 µM (inactive); in assay [18] it was 14.5 µM (inactive); in assay [19], 31.7 µM (inactive).
In the case of `C/C=C(\C)C(=O)OC1/C=C(\C)CC/C=C(\C)CC2OC(=O)C(C)(OC(C)=O)C12` (configuration not stated), the GI50 in [1] is > 100 µM (inactive); in [2], > 100 µM (inactive); in assay [3], > 100 µM (inactive); in assay [4] it was > 100 µM (inactive); in assay [5], over 100 µM; in assay [6], > 100 µM (inactive). The GI50 in [7], in assay [8], in assay [9], in [10], in assay [11] and in assay [12] was > 100 µM (inactive) each time. Moreover, the GI50 in assay [13], in assay [14], in assay [15], in assay [16], in assay [17] and in [18] was > 100 µM (inactive) throughout.
Turning to `C=CCOc1ccc(C2C(C(=O)OCC)C(=O)CC(C)(O)C2C(=O)OCC)cc1OC` (configuration not stated), the GI50 was > 100 µM (inactive) in assay [1]; > 100 µM (inactive) in [2]; > 100 µM (inactive) in assay [3]; > 100 µM (inactive) in assay [4]; over 100 µM in assay [5]; > 100 µM (inactive) in assay [6]. The GI50 in assay [7], in assay [8], in [9], in [10], in assay [11] and in assay [12] was > 100 µM (inactive) in each case. For the same compound, the GI50 in assay [13], in assay [14], in assay [15], in [16], in assay [17] and in assay [18] was > 100 µM (inactive) in each case. Besides, in [19], the GI50 was > 100 µM (inactive).
